Experimental data from patent US20250270173A1, “PYRIDINE DERIVATIVES FOR TREATING PSYCHIATRIC DISORDERS” (GILGAMESH PHARMACEUTICALS, INC., priority 2022, published 2025).
“And” between values parts separate entries of the source, which are not always exact repeats. Equal values may be shown once. Read-outs that look alike come from different tables or passages of the source.

Experiments:
[1] = target: 5-HT2B receptor (Homo sapiens (Human), UniProt P41595); assay: FLIPR Ca2+ flux functional assay at 5-HT2B (HEK293); settings: for 5-HT2B % Act @ Max Conc.: HEK293, at max concentration
[2] = target: 5-HT1A receptor (Homo sapiens (Human), UniProt P08908); assay: FLIPR Ca2+ flux functional assay at 5-HT1A (CHO cells); settings: for 5-HT1A % Act @ Max Conc.: at max concentration
[3] = test system: C57BL/6 mice; assay: Manual head twitch response (HTR) assay in mice; format: in vivo; settings: SC
Method: Agonists of the 5-HT2A receptor are well known to induce this effect in rodents and the potency of this HTR is correlated with hallucinogenic potency in humans.
(§1) Animals. Adult male C57BL/6 mice aged 8-10 weeks (body weight 20-25 g) were used in these experiments. Animals were housed under controlled temperatures and 12-hour light/dark cycles (lights on between 07:00-19:00 h), with ad libitum food and water. The protocol was approved by the Institutional Animal Care and Use Committee at the study site. This study was carried out in strict accordance with the recommendations in the Guide for the Care and Use of Laboratory Animals of the National Institutes of Health. All efforts were made to minimize suffering.
Drugs and Drug administration. DOI was commercially obtained. All other compounds were synthesized as described above. All drugs were administered subcutaneously (SC) dissolved in saline vehicle (or saline acidified with 1-2 molar equivalents HCl to form the salt in situ for freebase compounds) and at a volume of 10 mL/kg. Drugs were administered at 4 or 5 doses per compound, using n=6 animals/group. Doses were calculated on the basis of the freebase form, except for DOT, which was calculated based on the HCl salt.
Procedure. Mice were administered one dose of the drug (or vehicle) SC and immediately placed into a small open field for behavioral observation. Animals were observed continuously for 20 mins and the number of head twitches (HTs) were counted by an observer blind to the treatment condition.
(§2) Statistical Analysis. Analysis was performed using GraphPad Prism 9. Dose-response curves were fit via non-linear regression using the Gaussian 2020 function in Prism in order to determine the ED50 and Emax for each compound.

[4] = target: T1, 5-HT2A receptor (Homo sapiens (Human), UniProt P28223); assay: 5-HT2A receptor radioligand binding with [3H]ketanserin; settings: read-out: Ki at 5-HT2A Receptor (nM) ([3H]ketanserin); HEK293 stable cell line, 1 nM [3H]ketanserin, 1 h, 25 °C
[5] = target: T1, 5-HT2A receptor; assay: FLIPR Ca2+ flux functional assay at 5-HT2A (HEK293); settings: for 5-HT2A % Act @ Max Conc.: HEK293, at max concentration
[6] = target: human 5-HT2C receptor (Homo sapiens (Human), UniProt P28335); assay: FLIPR Ca2+ flux functional assay at 5-HT2C (Eurofins DiscoverX); format: cell-based; settings: Ca2+ flux, human 5-HT2C; for 5-HT2C % Act @ Max Conc.: at max concentration; for EC50: read-out: 5-HT2C EC50
Method: Functional Assays at 5-HT2C Receptors. […] Probenecid was prepared fresh. Cells were loaded with dye prior to testing and incubated at 37° C. for 30-60 minutes. After dye loading, cells were removed from the incubator and 10 μL HBSS/20 mM Hepes was added. 3× vehicle was included in the assay buffer. Cells were incubated for 30 mins at room temperature in the dark to equilibrate plate temperature. Intermediate dilution of sample stocks was performed to generate 4× sample in assay buffer. Compound agonist activity was measured on a FLIPR Tetra (MDS). Calcium mobilization was monitored for 2 minutes and 10 μL 4× sample in HBSS/20 mM Hepes was added to the cells 5 seconds into the assay.

[7] = test system: C57BL/6 mice; assay: Automated (video tracking) head twitch response (HTR) assay in mice; format: in vivo; settings: SC; for Most Efficacious Dose; mg/kg: dose giving the most HTR
Method: Disclosed compounds were tested for their ability to induce a head twitch response (HTR) in mice using an automated video tracking procedure, with the results summarized in Table 5. […] The phenyl Compound 44 was substantially more efficacious at inducing HTR than its pyridine counterpart Compound 29, in agreement with the generally lower maximal efficacy of the disclosed pyridine compounds for signaling through 5-HT2A receptors.
as §1
Drugs and Drug Administration. […] was commercially obtained. Disclosed compounds were synthesized as described above. They were administered subcutaneously (SC) dissolved in saline (or saline acidified with 1-2 molar equivalents HCl to form the salt in situ for freebase compounds) at a volume of 10 mL/kg. Five doses were tested, with N=5-8 animals/group. Doses were calculated on the basis of the freebase, except for DOI, which was calculated based on the HCl salt.
Procedure. Mice were administered one dose of the drug and immediately placed into a small open field for behavioral observation. High-speed video of animals' behavior was captured continuously for 20 min. Video recordings were imported into an image processing software, which detects multiple points of interest on each animal's body, including the left and right ear. HTR events were defined as periodic deviations of ear locations from temporally averaged ear locations. Predefined thresholds for magnitude and frequency of location deviations were used to filter […] events from random head movements. The method was validated by comparing detected events with manual (human) observations and found to have an accuracy >95%. The total number of HTR events counted during the 20-min recording were determined for each animal at each dose.
as §2

[8] = read-out: 5-HT2B EC50, Ca2+ flux, HEK293
[9] = read-out: 5-HT1A EC50, Ca2+ flux, CHO cells
[10] = read-out: 5-HT2A EC50, Ca2+ flux, HEK293

Sequence of 5-HT2B receptor (P41595 whole entry, looked up): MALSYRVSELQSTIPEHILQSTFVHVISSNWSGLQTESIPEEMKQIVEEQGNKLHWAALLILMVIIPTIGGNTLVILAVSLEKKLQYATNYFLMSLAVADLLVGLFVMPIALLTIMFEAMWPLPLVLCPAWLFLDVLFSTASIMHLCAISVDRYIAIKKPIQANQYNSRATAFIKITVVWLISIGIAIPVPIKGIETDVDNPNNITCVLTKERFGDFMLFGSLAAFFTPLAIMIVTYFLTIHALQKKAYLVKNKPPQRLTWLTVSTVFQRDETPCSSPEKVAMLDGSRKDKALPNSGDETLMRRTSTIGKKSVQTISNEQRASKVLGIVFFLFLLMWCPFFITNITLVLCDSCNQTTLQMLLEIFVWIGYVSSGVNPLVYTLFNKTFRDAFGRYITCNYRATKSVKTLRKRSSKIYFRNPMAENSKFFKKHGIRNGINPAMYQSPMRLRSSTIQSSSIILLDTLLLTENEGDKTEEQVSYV
Sequence of human 5-HT2C receptor (P28335 whole entry, looked up): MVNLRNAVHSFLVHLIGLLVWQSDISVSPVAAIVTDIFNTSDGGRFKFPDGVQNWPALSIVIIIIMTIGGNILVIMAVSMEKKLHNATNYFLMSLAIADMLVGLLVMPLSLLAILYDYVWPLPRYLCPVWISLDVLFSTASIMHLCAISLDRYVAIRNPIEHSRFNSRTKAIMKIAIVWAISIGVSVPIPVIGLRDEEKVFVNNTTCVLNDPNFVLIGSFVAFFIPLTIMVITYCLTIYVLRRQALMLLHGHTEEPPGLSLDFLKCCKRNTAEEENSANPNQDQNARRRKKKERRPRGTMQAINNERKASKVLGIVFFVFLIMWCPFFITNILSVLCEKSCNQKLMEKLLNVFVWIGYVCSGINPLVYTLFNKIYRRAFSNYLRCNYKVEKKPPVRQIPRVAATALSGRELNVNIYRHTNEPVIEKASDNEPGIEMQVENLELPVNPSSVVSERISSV

SMILES	5-HT2B % Act @ Max Conc. ([1]; Ca2+ flux) [%]	EC50 [2] [nM]	5-HT1A % Act @ Max Conc. ([2]; Ca2+ flux, CHO cells) [%]	ED50 ([3]; Mus musculus, 20 min, 20 min observation, read-out: ED50) [mg/kg]	Emax (HTR counts/20 min) [3] [HTR counts/20 min]	Ki [4] [nM]	EC50 [5] [nM]	5-HT2A % Act @ Max Conc. ([5]; Ca2+ flux)	5-HT2C % Act @ Max Conc. [6] [%]	EC50 [6] [nM]	EC50 [1, 8] [nM]	EC50 [2, 9] [nM]	EC50 [5, 10] [nM]	EC50 [1] [nM]	ED50 ([7]; Mus musculus, 20 min, 20 min recording, read-out: ED50) [mg/kg]	Emax (HTR counts/20 min) [7] [HTR counts/20 min]	# HTR/20 min at Most Efficacious Dose [7] [HTR/20 min]	Most Efficacious Dose; mg/kg [7]
CCCCCc1cc(OC)c(CC(N)CC)nc1OC (stereo not shown) [Compound 1, 1-(3,6-dimethoxy-5-pentylpyridin-2-yl)butan-2-amine]	0.18	20200	188	0.897	18.78	40	115	25% and 25.3%	44.38	5470	–	–	–	–	–	–	–	–
COc1cc(C(F)(F)F)c(OC)cc1CCN [Compound 2C-TFM, 2C-TFM, reference compound]	82.0	–	−0.647	–	–	15.8	–	81.5%	88.2	0.593	16.3	> 10000	1.05	–	–	–	–	–
CCCCCc1cc(OC)c(CCN)nc1OC [Compound 7, 2-(3,6-dimethoxy-5-pentylpyridin-2-yl)ethan-1-amine]	11.56	51900	61.95	–	–	6.32	20	82.88%	92.53	16.2	–	–	–	> 10000	4.88	24.61	23.25	(1) mg/kg
CCC(N)Cc1nc(OC)c(Cl)cc1OC (stereo not shown) [Compound 18, 1-(5-chloro-3,6-dimethoxypyridin-2-yl)butan-2-amine]	2.75	> 100000	1.33	–	–	1200	370	70.92%	36.76	2250	–	–	–	> 10000	–	–	33.12	(10) mg/kg
COc1cc(CCNCc2ccccc2OC)c(OC)cc1C [Compound 25D-NBOMe, 25D-NBOMe, reference compound]	43.3	–	−4.43	–	–	2.52	–	97.5%	91.5	< 0.508	1.27	> 10000	0.251	–	–	–	–	–
